Test results taken from patent US9018206B2, “Carboxamide compounds and their use as calpain inhibitors” (AbbVie Deutschland GmbH & Co. KG, priority 2009, dated 2015).

How the values were obtained:
Assay type in all cases: biochemical
[1] = target: T1, calpain-I isolated from human erythrocytes (Homo sapiens, UniProt P07384); test: Calpain I enzyme inhibition in vitro (kinetic fluorescence assay); details: apparent Ki from IC50 (Cheng-Prussoff); 20 nM calpain-I, 100 μM Suc-Leu-Tyr-AMC, pH 7.3, room temperature
T1 construct: calpain-I—isolated from human erythrocytes; purchased Calbiochem 208713; host or cells: human erythrocytes (tissue-derived)
T1 sequence (P07384 1-714): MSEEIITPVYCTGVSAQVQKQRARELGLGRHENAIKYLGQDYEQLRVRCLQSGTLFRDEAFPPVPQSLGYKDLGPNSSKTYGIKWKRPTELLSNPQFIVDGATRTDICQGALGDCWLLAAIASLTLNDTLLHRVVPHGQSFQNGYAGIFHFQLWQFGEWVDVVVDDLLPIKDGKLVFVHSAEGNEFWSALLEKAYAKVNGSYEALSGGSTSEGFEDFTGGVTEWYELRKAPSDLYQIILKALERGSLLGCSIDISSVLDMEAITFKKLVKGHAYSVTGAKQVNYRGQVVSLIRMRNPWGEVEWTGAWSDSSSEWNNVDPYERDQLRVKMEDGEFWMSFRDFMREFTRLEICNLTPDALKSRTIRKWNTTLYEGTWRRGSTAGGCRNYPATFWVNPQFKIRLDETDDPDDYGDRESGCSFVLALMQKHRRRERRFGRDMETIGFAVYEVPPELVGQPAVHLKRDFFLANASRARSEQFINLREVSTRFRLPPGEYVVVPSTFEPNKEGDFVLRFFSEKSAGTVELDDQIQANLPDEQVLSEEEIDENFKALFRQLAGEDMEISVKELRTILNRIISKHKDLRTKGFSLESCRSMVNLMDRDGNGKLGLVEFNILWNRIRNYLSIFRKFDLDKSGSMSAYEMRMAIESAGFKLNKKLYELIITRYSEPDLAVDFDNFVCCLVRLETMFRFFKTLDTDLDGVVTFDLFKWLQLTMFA
T1 sequence (P04632 1-268 partner): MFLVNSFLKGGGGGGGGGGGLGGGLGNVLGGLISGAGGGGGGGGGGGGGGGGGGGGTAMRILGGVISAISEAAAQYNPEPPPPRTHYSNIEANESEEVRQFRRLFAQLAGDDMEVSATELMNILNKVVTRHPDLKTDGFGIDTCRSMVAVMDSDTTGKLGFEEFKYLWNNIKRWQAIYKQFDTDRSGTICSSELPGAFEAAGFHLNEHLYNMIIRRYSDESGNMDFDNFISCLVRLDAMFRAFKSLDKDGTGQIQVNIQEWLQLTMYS
Protocol: (§1) Testing for blockade of the corresponding enzymic activities was carried out by means of kinetic fluorescence assays (excitation 390 nm, emission 460 nm).
(§2) Apparent Ki values were calculated from the experimentally determined IC50 values by the Cheng-Prussoff relation assuming a reversible competitive enzyme inhibition. The Km values of the substrates used under the assay conditions indicated above were: 90 μM (Z-Phe-Arg-AMC, cathepsin B), 10 μM (Z-Gly-Pro-Arg-AMC, cathepsin K), 2 μM (Z-Phe-Arg-AMC, cathepsin L), and 30 μM (Z-Val-Val-Arg-AMC, cathepsin S).
(§3) The indicated Ki values are averages of the inhibition constants calculated on the basis of 2 to 4 independent dose-effect plots.
(§4) • 20 nM calpain-I—isolated from human erythrocytes (Calbiochem #208713), 100 μM Suc-Leu-Tyr-AMC (Bachem #I-1355) as substrate in buffer with 62 mM imidazole, 0.3 mM CaCl2, 0.10% CHAPS, 0.05% BSA, 1 mM DTT at pH 7.3 and room temperature. 1. Cathepsin B: • 0.25 nM cathepsin B—isolated from human liver (Calbiochem #219362), 100 μM Z-Phe-Arg-AMC (Bachem #I-1160) as substrate 50 mM MES, 2 mM EDTA, 0.05% Brij 35, 2.5 mM L-cysteine, pH 6.0, room temperature. 3. Cathepsin K: • 3 nM cathepsin K activated from recombinant human procathepsin K from E. coli (Calbiochem #342001), 10 μM Z-Gly-Pro-Arg-AMC (Biomol #P-142) as substrate in 50 mM MES, 2 mM EDTA, 0.05% Brij 35, 2.5 mM L-cysteine, pH 6.0, room temperature. 4. Cathepsin L: • 1 nM cathepsin L—isolated from human liver (Calbiochem #219402), 2 μM Z-Phe-Arg-AMC (Bachem #I-1160) as substrate in 50 mM MES, 2 mM EDTA, 0.05% Brij 35, 2.5 mM L-cysteine, pH 6.0, room temperature. 5. Cathepsin S: • 0.5 nM recombinant human cathepsin S from E. coli (Calbiochem #219343), 20 μM Z-Val-Val-Arg-AMC (Bachem #I-1540) as substrate in 50 mM MES, 2 mM EDTA, 0.05% Brij 35, 2.5 mM L-cysteine, pH 6.0, room temperature.

[2] = target: T2, recombinant human cathepsin S (Homo sapiens, UniProt P25774); test: Cathepsin S enzyme inhibition in vitro (kinetic fluorescence assay); details: Ki(cathepsin S)/Ki(calpain) ratio
T2 construct: purchased Calbiochem 219343; host or cells: E. coli
Protocol: as §1, §2, §3, §4

[3] = target: T3, cathepsin K activated from recombinant human procathepsin K (Homo sapiens, UniProt P43235); test: Cathepsin K enzyme inhibition in vitro (kinetic fluorescence assay); details: Ki(cathepsin K)/Ki(calpain) ratio
T3 construct: purchased Calbiochem 342001; host or cells: E. coli
T3 sequence (P43235 115-329): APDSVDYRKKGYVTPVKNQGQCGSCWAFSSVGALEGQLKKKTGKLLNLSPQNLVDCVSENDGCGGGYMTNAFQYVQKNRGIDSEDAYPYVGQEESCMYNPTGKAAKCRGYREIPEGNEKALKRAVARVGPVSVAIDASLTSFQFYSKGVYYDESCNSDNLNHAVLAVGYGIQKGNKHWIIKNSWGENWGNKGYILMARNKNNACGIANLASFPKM
Protocol: as §1, §2, §3, §4

[4] = target: T4, cathepsin B isolated from human liver (Homo sapiens, UniProt P07858); test: Cathepsin B enzyme inhibition in vitro (kinetic fluorescence assay); details: Ki(cathepsin B)/Ki(calpain) ratio
T4 construct: cathepsin B—isolated from human liver; purchased Calbiochem 219362; host or cells: human liver (tissue-derived)
Protocol: as §1, §2, §3, §4

T2 sequence (P25774 115-331): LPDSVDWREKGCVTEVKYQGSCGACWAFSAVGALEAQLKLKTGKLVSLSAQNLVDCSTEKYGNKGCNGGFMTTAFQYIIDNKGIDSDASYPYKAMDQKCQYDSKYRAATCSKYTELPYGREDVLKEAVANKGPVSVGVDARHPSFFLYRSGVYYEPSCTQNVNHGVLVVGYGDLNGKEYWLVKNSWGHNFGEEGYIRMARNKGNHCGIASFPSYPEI

Compound | Ki [1] [nM] | Sel cat. S [2] | Sel cat. K [3] | Sel cat. B [4]
O=C(NCCc1ccsc1)C(=O)C(Cc1ccccc1)NC(=O)[C@H]1CCC(=O)N1Cc1ccccc1 (single isomer, unassigned) [Example 71] | < 50 |  |  | 
NC(=O)C(=O)C(Cc1ccccc1)NC(=O)[C@H]1CCC(=O)N1Cc1ccc2ccccc2c1 (stereo partly drawn) [Example 12, (2R)—N-(4-Amino-3,4-dioxo-1-phenylbutan-2-yl)-1-(naphthalen-2-ylmethyl)-5-oxopyrrolidine-2-carboxamide] | < 50 | + (10<Ki(cathepsin S)/Ki(calpain)≦30) | + (5<Ki(cathepsin K)/Ki(calpain)≦10) | 
NC(=O)C(=O)C(Cc1ccccc1)NC(=O)[C@H]1CCC(=O)N1Cc1cccc2ccccc12 (stereo partly drawn) [Example 11, (2R)—N-(4-Amino-3,4-dioxo-1-phenylbutan-2-yl)-1-(naphthalen-1-ylmethyl)-5-oxopyrrolidine-2-carboxamide] | < 50 | ++ (30<Ki(cathepsin B)/Ki(calpain)≦100) | +++ (Ki(cathepsin K)/Ki(calpain) ratio of >30) | ++ (10<Ki(cathepsin B)/Ki(calpain)≦30)
O=C(NNC(=O)c1ccccc1)C(=O)C(Cc1ccccc1)NC(=O)[C@H]1CCC(=O)N1Cc1ccccc1 (mixture of isomers) [Example 57, (2R)—N-(4-(2-Benzoylhydrazinyl)-3,4-dioxo-1-phenylbutan-2-yl)-1-benzyl-5-oxopyrrolidine-2-carboxamide] | 50 to 100 | +++ (Ki(cathepsin S)/Ki(calpain) ratio of >100) | ++ (10<Ki(cathepsin B)/Ki(calpain)≦30) | + (5<Ki(cathepsin B)/Ki(calpain)≦10)
O=C(C(=O)N1CCOCC1)C(Cc1ccccc1)NC(=O)[C@H]1CCC(=O)N1Cc1ccccc1 (mixture of isomers) [Example 54, (2R)-1-Benzyl-N-(4-morpholino-3,4-dioxo-1-phenylbutan-2-yl)-5-oxopyrrolidine-2-carboxamide] | 100 to 600 |  |  | 
O=C(NC1CCCCC1)C(=O)C(Cc1ccccc1)NC(=O)[C@H]1CCC(=O)N1Cc1ccccc1 (mixture of isomers) [Example 56, (2R)-1-Benzyl-N-(4-(cyclohexylamino)-3,4-dioxo-1-phenylbutan-2-yl)-5-oxopyrrolidine-2-carboxamide] | 50 to 100 | ++ (30<Ki(cathepsin B)/Ki(calpain)≦100) | + (5<Ki(cathepsin K)/Ki(calpain)≦10) | ++ (10<Ki(cathepsin B)/Ki(calpain)≦30)
O=C(NCc1ccco1)C(=O)C(Cc1ccccc1)NC(=O)[C@H]1CCC(=O)N1Cc1ccccc1 (mixture of isomers) [Example 72, (2R)-1-Benzyl-N-(4-(furan-2-ylmethylamino)-3,4-dioxo-1-phenylbutan-2-yl)-5-oxopyrrolidine-2-carboxamide] | 50 to 100 |  |  | 
O=C(NC[C@@H]1CCCO1)C(=O)C(Cc1ccccc1)NC(=O)[C@H]1CCC(=O)N1Cc1ccccc1 (stereo partly drawn) [Example 70, (2R)-1-Benzyl-N-(3,4-dioxo-1-phenyl-4-(((S)-tetrahydrofuran-2-yl)methylamino)-butan-2-yl)-5-oxopyrrolidine-2-carboxamide] | 50 to 100 |  |  | 
COc1cccc(C(F)(F)F)c1CN1C(=O)CC[C@@H]1C(=O)NC(Cc1ccccc1)C(=O)C(=O)NC1CC1 (mixture of isomers) [Example 74, (2R)—N-(4-(Cyclopropylamino)-3,4-dioxo-1-phenylbutan-2-yl)-1-(2-methoxy-6-(trifluoromethyl)benzyl)-5-oxopyrrolidine-2-carboxamide] | 100 to 600 |  |  | 
CN1C[C@H](C(=O)NC(Cc2ccccc2)C(=O)C(N)=O)N(Cc2ccccc2)C1=O (stereo partly drawn) [Example 18, (4R)—N-(4-Amino-3,4-dioxo-1-phenylbutan-2-yl)-3-benzyl-1-methyl-2-oxoimidazolidine-4-carboxamide] | 100 to 600 |  |  | +++ (Ki(cathepsin B)/Ki(calpain) ratio of >30)
O=C(NCc1nc2ccccc2s1)C(=O)C(Cc1ccccc1)NC(=O)[C@H]1CCC(=O)N1Cc1ccccc1 (stereo partly drawn) [Example 53, (2R)—N-(4-(Benzo[d]thiazol-2-ylmethylamino)-3,4-dioxo-1-phenylbutan-2-yl)-1-benzyl-5-oxopyrrolidine-2-carboxamide] | 50 to 100 |  |  | 
CCNC(=O)C(=O)C(Cc1ccccc1)NC(=O)[C@H]1CCC(=O)N1Cc1ccc(C(F)(F)F)cc1 (mixture of isomers) [Example 55, (2R)—N-(4-(ethylamino)-3,4-dioxo-1-phenylbutan-2-yl)-5-oxo-1-(4-(trifluoromethyl)benzyl)pyrrolidine-2-carboxamide] | 100 to 600 |  |  | 
NC(=O)C(=O)C(Cc1ccccc1)NC(=O)c1cccc(=O)n1Cc1ccccc1 (centres unmarked) [Example 4, N-(4-Amino-3,4-dioxo-1-phenylbutan-2-yl)-1-benzyl-6-oxo-1,6-dihydropyridine-2-carboxamide] | 50 to 100 | + (10<Ki(cathepsin S)/Ki(calpain)≦30) |  | ++ (10<Ki(cathepsin B)/Ki(calpain)≦30)
O=C(NCc1cncs1)C(=O)C(Cc1ccccc1)NC(=O)[C@H]1CCC(=O)N1Cc1ccccc1 (mixture of isomers) [Example 52, (2R)-1-Benzyl-N-(3,4-dioxo-1-phenyl-4-(thiazol-5-ylmethylamino)butan-2-yl)-5-oxopyrrolidine-2-carboxamide] | 100 to 600 |  |  | 
O=C(NCCc1ccccn1)C(=O)C(Cc1ccccc1)NC(=O)[C@H]1CCC(=O)N1Cc1ccccc1 (mixture of isomers) [Example 31, (2R)-1-Benzyl-N-(3,4-dioxo-1-phenyl-4-(2-(pyridin-2-yl)-ethylamino)butan-2-yl)-5-oxopyrrolidine-2-carboxamide] | 100 to 600 | ++ (30<Ki(cathepsin B)/Ki(calpain)≦100) | ++ (10<Ki(cathepsin B)/Ki(calpain)≦30) | 
O=C(NC[C@H]1CCCO1)C(=O)C(Cc1ccccc1)NC(=O)[C@H]1CCC(=O)N1Cc1ccccc1 (mixture of isomers) [Example 69, (2R)-1-Benzyl-N-(3,4-dioxo-1-phenyl-4-(((R)-tetrahydrofuran-2-yl)methylamino)-butan-2-yl)-5-oxopyrrolidine-2-carboxamide] | 100 to 600 |  |  | 
